Assay [1] has as its target T1, Integrin alpha-IIb/beta-3 (Homo sapiens, UniProt P05106+P08514). Briefly: Inhibition of [125I]fibrinogen binding to activated human platelets. The format is functional.
Target sequence in this assay (P05106 27-788 limits assumed): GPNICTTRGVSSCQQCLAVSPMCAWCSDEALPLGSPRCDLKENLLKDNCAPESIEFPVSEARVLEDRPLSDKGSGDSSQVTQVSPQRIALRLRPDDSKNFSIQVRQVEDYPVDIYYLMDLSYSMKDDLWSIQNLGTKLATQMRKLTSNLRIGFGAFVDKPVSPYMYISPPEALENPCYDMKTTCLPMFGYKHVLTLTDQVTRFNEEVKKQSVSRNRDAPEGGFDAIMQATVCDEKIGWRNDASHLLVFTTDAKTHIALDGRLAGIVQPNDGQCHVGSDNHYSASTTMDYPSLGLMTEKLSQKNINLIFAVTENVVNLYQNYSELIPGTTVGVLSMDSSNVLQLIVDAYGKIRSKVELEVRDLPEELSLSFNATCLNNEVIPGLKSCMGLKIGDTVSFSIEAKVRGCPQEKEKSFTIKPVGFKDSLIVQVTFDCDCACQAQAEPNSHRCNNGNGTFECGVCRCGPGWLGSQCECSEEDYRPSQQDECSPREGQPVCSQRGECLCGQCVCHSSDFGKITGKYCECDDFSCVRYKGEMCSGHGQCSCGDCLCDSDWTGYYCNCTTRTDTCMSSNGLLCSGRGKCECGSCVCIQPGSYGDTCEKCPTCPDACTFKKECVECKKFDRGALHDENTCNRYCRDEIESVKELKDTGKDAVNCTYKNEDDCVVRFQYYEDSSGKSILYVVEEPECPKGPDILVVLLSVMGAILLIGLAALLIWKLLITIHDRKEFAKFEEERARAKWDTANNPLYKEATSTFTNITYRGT
Target sequence in this assay (P08514 32-887 limits assumed): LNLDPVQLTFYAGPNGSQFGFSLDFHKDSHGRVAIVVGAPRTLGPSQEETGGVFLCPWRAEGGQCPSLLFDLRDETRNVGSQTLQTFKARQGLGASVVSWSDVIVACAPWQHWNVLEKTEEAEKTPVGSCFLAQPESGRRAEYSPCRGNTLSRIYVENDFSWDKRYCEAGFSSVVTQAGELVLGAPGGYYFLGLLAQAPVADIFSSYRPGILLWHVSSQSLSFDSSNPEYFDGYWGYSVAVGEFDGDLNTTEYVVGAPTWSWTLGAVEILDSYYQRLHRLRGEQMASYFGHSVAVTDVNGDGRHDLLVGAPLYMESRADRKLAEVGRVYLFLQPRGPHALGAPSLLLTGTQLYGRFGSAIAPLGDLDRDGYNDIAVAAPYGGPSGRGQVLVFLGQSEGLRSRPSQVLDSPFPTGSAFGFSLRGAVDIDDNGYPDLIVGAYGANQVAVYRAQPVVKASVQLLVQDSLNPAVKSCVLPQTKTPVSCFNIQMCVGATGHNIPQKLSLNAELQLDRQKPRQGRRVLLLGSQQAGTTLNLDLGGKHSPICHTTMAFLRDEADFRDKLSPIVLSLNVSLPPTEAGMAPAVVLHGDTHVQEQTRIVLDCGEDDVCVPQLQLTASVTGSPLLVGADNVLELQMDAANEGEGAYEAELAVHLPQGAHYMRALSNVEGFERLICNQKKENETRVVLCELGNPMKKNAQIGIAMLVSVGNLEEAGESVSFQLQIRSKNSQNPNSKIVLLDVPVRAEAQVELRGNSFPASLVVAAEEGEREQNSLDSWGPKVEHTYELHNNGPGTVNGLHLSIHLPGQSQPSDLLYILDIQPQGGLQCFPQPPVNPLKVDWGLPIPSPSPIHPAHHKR
Target sequence in this assay (P08514 891-1039 limits assumed): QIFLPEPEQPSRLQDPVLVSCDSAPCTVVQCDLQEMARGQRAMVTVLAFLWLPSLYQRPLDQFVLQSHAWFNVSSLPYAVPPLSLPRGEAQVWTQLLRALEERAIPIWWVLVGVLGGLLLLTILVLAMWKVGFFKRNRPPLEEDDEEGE
The target in assay [2] is Integrin alpha-5/beta-1 (Homo sapiens, UniProt P05556+P08648). Put plainly: Inhibition of interaction between HUVEC cells and fibronectin. The assay is classed as cell-based.
The nature of assay [3]: Inhibition of interaction between HUVEC cells and Vitronectin. The assay is classed as cell-based, Homo sapiens.
Assay [4] has as its target T2, Integrin alpha-M/beta-2 (Homo sapiens, UniProt P05107+P11215). Put plainly: Inhibition of Mac-1 interaction with ICAM. The assay is classed as protein-complex assay.
The target of assay [5] is Integrin alpha-4/beta-1 (Homo sapiens, UniProt P05556+P13612). Briefly: Inhibition of VLA-4 integrin alpha4-beta1 interaction with VCAM. The assay is classed as protein-complex assay.
The target of assay [6] is T2, Integrin alpha-M/beta-2. Briefly: Inhibition of Mac-1 integrin (alphaM-beta2). The assay is classed as protein-complex assay.
Assay [7] addresses T1, Integrin alpha-IIb/beta-3. Put plainly: Inhibition of Fibrinogen Receptor integrin alphaIIb-beta3 in ELISA. The assay is classed as protein-complex assay. A general note: In an ELISA, binding on a coated surface is turned into a signal by an enzyme label.
Target sequence in this assay (P05106 27-788 limits assumed): as the sequence (P05106 27-788 limits assumed) above
Target sequence in this assay (P08514 32-887 limits assumed): as the sequence (P08514 32-887 limits assumed) above
Target sequence in this assay (P08514 891-1039 limits assumed): as the sequence (P08514 891-1039 limits assumed) above
The target in assay [8] is T1, Integrin alpha-IIb/beta-3. Put plainly: Inhibition of human platelet aggregation induced by ADP at 100 uM. The format is functional.
In assay [9] the test system is Integrin alpha-IIb/beta-3 (Canis lupus familiaris). Put plainly: Inhibition of ADP-mediated platelet aggregation over 6 hr. The following applies: concentration not given here.

T2 sequence (P05107 23-769 limits assumed, other chains not shown): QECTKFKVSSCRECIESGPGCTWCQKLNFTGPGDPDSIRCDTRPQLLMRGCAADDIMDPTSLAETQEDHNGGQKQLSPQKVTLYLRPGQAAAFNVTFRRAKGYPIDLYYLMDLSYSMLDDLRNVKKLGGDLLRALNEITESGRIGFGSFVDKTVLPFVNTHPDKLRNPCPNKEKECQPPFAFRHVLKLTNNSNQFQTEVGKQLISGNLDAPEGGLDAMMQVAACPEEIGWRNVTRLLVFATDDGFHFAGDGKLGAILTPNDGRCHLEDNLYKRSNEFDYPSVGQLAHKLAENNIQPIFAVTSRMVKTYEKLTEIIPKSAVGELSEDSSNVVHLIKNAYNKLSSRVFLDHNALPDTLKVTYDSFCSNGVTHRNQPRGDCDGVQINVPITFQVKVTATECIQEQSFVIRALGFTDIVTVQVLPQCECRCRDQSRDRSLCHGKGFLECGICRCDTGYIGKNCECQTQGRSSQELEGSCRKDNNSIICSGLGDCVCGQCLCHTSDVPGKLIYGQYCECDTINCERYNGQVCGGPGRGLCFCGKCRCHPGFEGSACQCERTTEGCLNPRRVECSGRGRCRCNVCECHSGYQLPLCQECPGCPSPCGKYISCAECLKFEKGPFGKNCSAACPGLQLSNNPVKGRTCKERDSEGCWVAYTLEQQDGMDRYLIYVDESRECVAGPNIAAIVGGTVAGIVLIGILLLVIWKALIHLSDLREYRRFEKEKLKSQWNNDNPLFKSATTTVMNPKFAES
Sequence of Integrin alpha-4/beta-1 (P05556 whole entry): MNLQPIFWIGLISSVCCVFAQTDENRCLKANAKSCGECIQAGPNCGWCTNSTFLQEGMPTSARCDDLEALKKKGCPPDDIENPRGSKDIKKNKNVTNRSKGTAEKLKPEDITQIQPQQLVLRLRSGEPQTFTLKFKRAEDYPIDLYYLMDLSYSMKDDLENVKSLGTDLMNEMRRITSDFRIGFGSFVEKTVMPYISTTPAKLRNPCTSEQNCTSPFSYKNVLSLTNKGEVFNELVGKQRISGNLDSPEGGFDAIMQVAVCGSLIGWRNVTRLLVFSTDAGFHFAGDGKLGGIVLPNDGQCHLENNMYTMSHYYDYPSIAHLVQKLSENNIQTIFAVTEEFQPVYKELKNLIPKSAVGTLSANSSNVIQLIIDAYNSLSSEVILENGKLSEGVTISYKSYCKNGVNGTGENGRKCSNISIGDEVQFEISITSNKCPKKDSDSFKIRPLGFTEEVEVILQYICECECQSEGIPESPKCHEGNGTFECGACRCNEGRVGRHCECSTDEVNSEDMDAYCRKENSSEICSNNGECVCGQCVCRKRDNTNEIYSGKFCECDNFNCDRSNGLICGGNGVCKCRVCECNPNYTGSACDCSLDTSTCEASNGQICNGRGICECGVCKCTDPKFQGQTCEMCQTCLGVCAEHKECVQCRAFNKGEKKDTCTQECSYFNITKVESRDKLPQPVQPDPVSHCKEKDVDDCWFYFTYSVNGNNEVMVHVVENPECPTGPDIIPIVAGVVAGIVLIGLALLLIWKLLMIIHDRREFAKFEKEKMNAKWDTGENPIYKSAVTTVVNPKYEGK
Sequence of Integrin alpha-4/beta-1 (P13612 whole entry): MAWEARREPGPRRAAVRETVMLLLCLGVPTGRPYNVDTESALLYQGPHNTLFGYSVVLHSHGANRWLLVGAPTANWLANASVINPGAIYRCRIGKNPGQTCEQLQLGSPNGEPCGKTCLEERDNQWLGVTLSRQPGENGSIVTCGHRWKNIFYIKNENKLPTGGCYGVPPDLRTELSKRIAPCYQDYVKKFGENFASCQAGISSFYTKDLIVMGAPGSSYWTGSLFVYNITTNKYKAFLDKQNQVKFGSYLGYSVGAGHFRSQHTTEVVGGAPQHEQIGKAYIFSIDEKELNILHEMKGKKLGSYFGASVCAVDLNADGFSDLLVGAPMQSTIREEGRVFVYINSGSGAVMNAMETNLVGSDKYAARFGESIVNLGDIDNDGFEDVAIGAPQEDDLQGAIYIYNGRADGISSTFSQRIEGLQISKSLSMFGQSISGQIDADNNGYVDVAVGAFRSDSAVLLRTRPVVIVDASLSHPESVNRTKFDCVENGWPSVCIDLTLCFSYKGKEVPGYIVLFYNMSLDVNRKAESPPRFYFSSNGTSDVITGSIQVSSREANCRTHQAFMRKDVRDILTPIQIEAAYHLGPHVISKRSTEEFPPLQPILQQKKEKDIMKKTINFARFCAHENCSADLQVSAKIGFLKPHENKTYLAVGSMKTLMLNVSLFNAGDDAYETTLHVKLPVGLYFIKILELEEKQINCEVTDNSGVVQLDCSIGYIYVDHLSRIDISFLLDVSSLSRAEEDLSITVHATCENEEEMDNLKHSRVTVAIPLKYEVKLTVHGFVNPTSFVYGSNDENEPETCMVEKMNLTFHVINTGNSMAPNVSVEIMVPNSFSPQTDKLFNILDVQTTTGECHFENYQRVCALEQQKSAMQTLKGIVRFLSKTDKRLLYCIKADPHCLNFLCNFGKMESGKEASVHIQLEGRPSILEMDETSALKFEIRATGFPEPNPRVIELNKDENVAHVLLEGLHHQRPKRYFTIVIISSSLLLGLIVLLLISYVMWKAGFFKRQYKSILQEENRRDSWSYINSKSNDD

As to `N=C(N)c1ccc(C2=NOC(CC(=O)NCCC(=O)O)C2)cc1` (stereo unspecified), the IC50 was 0.01 µM in assay [1]; 180 µM in [2]; 200 µM in assay [3]; 100 µM in [4]; more than 100 µM in assay [5]; more than 100 µM in [6]. For the same compound, the IC50 in assay [7] is 0.0011 µM.
Consider `O=C(O)CCN1C(=O)CC2(CC(CCC3CCNCC3)=NO2)C1=O` (stereo unspecified), for which the inhibition in assay [8] is 16.6%.
Same read-out and setting: the same measure for `O=C(O)CCCN1C(=O)CC2(CC(CCCC3CCNCC3)=NO2)C1=O` (stereo unspecified): 24%.
In turn, `O=C(O)CCCN1C(=O)CC2(CC(CCC3CCNCC3)=NO2)C1=O` (stereo unspecified) registered an inhibition in assay [8] of 16.3%.
For `CCOC(=O)CCNC(=O)CC1CC(c2ccc(C(=N)N)cc2)=NO1` (stereo unspecified), in [9], the inhibition was found to be 90%.

What is called IC50 is the point on the concentration scale where inhibition reaches its midpoint. Usually inhibition stands for the share of the control response that was lost under treatment.

(Values after ChEMBL document CHEMBL1130019, “Discovery of potent isoxazoline glycoprotein IIb/IIIa receptor antagonists” (J Med Chem, 1997).)
